Counter-ions that a name gives are not always drawn. Like-named read-outs stand apart in the source and are kept apart here.
Test system: human iPSC neurons, astrocytes and microglia treated with 5 μM sAβ42s
Assay: Focused small molecule screen, triple culture (neuron, astrocyte, microglia), rescue from sAβ42s toxicity
Format: cell-based
Conditions: for percent rescue from sAβ42s toxicity at 3.13 µM / percent rescue from sAβ42s toxicity at 12.5 µM / percent rescue from sAβ42s toxicity at 50 µM / percent rescue from sAβ42s toxicity at 0.78 µM: Homo sapiens, iPSC
Method: FIGS. 11A-11D show synapse % rescue versus MAP2% rescue (FIGS. 11A-11B) and beta III tubulin % rescue versus MAP2% rescue (FIGS. 11C-11D), in neurons and astrocytes (FIGS. 11A and 11C) or neurons, astrocytes, and microglia (FIGS. 11B and 11D) treated with 5 μM sAβ42s and small molecules from a focused screen of known neuroprotective agents at multiple concentrations (50 μM, 25 μM, 12.5 μM and 6.25 μM (double culture), 50 μM, 12.5 μM, 3.1 μM and 0.78 μM (triple culture). Small molecules that prevented toxicity in dendrites (MAP2), synapses (Synapsin 1/2), cell count (CUX2), or axons ([…]) at or above 30% were considered hits (red dotted line).
Frozen cells were thawed and immediately seeded at a density of 8,000 cells/well of a 384-well plate onto 8-week old neuron-astrocyte co-culture in Microglia media (BrainPhys™ neuronal media (Stem Cell Technologies) supplemented with 1× B27 with vitamin A, 1×N2 Plus Media Supplement (R&D Systems), 20 ng/mL BDNF, 20 ng/mL GDNF, 1 mM creatine, 200 nM L-ascorbic acid, 1 μg/mL mouse laminin, 0.5 mM GlutaMAX™ (Thermofisher), 0.5× penicillin-streptomycin, 1× normocin, 5 ng/mL TGF-β, 100 ng/mL human IL-34, 1.5 μg/mL cholesterol, 1 ng/mL gondoic acid, 100 ng/mL oleic acid, 460 μM thioglycerol, 1× insulin-transferrin-selenium, 25 ng/mL rhM-CSF, 5.4 μg/mL human insulin solution).
In double (neuron, astrocyte) and triple (neuron, astrocyte, microglia) cultures, each small molecule listed in Table 1 was tested in the AD model paradigm at up to four concentrations. Molecules that characterized ≥30% rescue in any of the four measurements of dendrites area (MAP2), synapses count (synapsin 1/2), or cell count (CUX2), or axon area (Beta III Tubulin; “BT3”)) were classified as hits (FIGS. 11A-11D, Table 2, and Table 3).

[1] = 3.13 μM compound, read-out: % B3T rescue
[2] = 3.13 μM compound, read-out: % MAP2 rescue
[3] = 3.13 μM compound, read-out: % Synapse rescue
[4] = 12.50 μM compound, read-out: % B3T rescue
[5] = 12.50 μM compound, read-out: % MAP2 rescue
[6] = 12.50 μM compound, read-out: % Synapse rescue
[7] = 50.00 μM compound, read-out: % B3T rescue
[8] = 50.00 μM compound, read-out: % MAP2 rescue
[9] = 50.00 μM compound, read-out: % Synapse rescue
[10] = 0.78 μM compound, read-out: % B3T rescue
[11] = 0.78 μM compound, read-out: % MAP2 rescue
[12] = 0.78 μM compound, read-out: % Synapse rescue

Molecule	% B3T rescue (12.50 μM compound)	% MAP2 rescue (12.50 μM compound)	% Synapse rescue (12.50 μM compound)	% B3T rescue (3.13 μM compound)	% MAP2 rescue (3.13 μM compound)	% Synapse rescue (3.13 μM compound)	% B3T rescue (50.00 μM compound)	% MAP2 rescue (50.00 μM compound)	% Synapse rescue (50.00 μM compound)	other results
CC(C)CCC[C@@H](C)[C@H]1CC[C@H]2[C@@H]3CCC4=CC(=NO)CC[C@]4(C)[C@H]3CC[C@]12C [TRO 19622]	–	–	–	–	–	–	–	–	–	percent rescue from sAβ42s toxicity at 3.13 µM [1]: 34%; percent rescue from sAβ42s toxicity at 3.13 µM [2]: -25%; percent rescue from sAβ42s toxicity at 3.13 µM [3]: -10%; percent rescue from sAβ42s toxicity at 12.5 µM [4]: 33%; percent rescue from sAβ42s toxicity at 12.5 µM [5]: -36%; percent rescue from sAβ42s toxicity at 12.5 µM [6]: -13%
Cc1cc(C(=O)CN2CCCC2)c(C)n1-c1ccc(F)cc1 [IU1]	41%	32%	23%	–	–	–	–	–	–	–
O=C1Nc2ccccc2/C1=C1/Nc2ccccc2/C1=N\O [Indinibin-3′-monoxime]	74%	37%	44%	31%	6%	9%	49%	23%	34%	–
Cn1cc(C2=C(c3ccc(Cl)cc3Cl)C(=O)NC2=O)c2ccccc21 [SB216763]	–	–	–	–	–	–	46%	−24%	−15%	–
CCCn1c(C)c(C(=O)c2cccc3ccccc23)c2ccccc21 [JWH 015]	60%	50%	43%	–	–	–	42%	38%	26%	–
O=C(COc1ccc(Cl)cc1)NC1CCC(NC(=O)COc2ccc(Cl)cc2)CC1 (stereo not drawn) [ISR Inhibitor, ISRIB]	–	–	–	–	–	–	22%	31%	21%	–
Cn1cnc2c(NCc3ccccc3)nc(NCCO)nc21 [Olomoucine]	–	–	–	–	–	–	–	–	–	percent rescue from sAβ42s toxicity at 50 µM [7]: 69%; percent rescue from sAβ42s toxicity at 50 µM [8]: -8%; percent rescue from sAβ42s toxicity at 50 µM [9]: -15%
Cn1sc(=O)n(Cc2ccccc2)c1=O [TDZD-8]	–	–	–	–	–	–	54%	−29%	−8%	–
Oc1ccc(C=Cc2cc(O)cc(O)c2)cc1 [Resveratrol]	–	–	–	–	–	–	–	–	–	percent rescue from sAβ42s toxicity at 0.78 µM [10]: 27%; percent rescue from sAβ42s toxicity at 0.78 µM [11]: 33%; percent rescue from sAβ42s toxicity at 0.78 µM [12]: 24%; percent rescue from sAβ42s toxicity at 3.13 µM [1]: 30%; percent rescue from sAβ42s toxicity at 3.13 µM [2]: 33%; percent rescue from sAβ42s toxicity at 3.13 µM [3]: 27%; percent rescue from sAβ42s toxicity at 12.5 µM [4]: 54%; percent rescue from sAβ42s toxicity at 12.5 µM [5]: 57%; percent rescue from sAβ42s toxicity at 12.5 µM [6]: 49%; percent rescue from sAβ42s toxicity at 50 µM [7]: 78%; percent rescue from sAβ42s toxicity at 50 µM [8]: 84%; percent rescue from sAβ42s toxicity at 50 µM [9]: 78%
COc1cc([C@@H]2c3cc4c(cc3[C@@H](O[C@@H]3O[C@@H]5CO[C@@H](c6cccs6)O[C@H]5[C@H](O)[C@H]3O)[C@H]3COC(=O)[C@H]23)OCO4)cc(OC)c1O [Teniposide]	–	–	–	–	–	–	–	–	–	percent rescue from sAβ42s toxicity at 0.78 µM [10]: 35%; percent rescue from sAβ42s toxicity at 0.78 µM [11]: -7%; percent rescue from sAβ42s toxicity at 0.78 µM [12]: 1%; percent rescue from sAβ42s toxicity at 3.13 µM [1]: 42%; percent rescue from sAβ42s toxicity at 3.13 µM [2]: -10%; percent rescue from sAβ42s toxicity at 3.13 µM [3]: 5%; percent rescue from sAβ42s toxicity at 12.5 µM [4]: 50%; percent rescue from sAβ42s toxicity at 12.5 µM [5]: -17%; percent rescue from sAβ42s toxicity at 12.5 µM [6]: 3%; percent rescue from sAβ42s toxicity at 50 µM [7]: 52%; percent rescue from sAβ42s toxicity at 50 µM [8]: -19%; percent rescue from sAβ42s toxicity at 50 µM [9]: 3%
CC(/C=C/C(=O)NO)=C\[C@@H](C)C(=O)c1ccc(N(C)C)cc1 [Trichostatin A]	31%	−18%	2%	–	–	–	41%	−13%	1%	–
C=CC[C@@H]1/C=C(\C)C[C@H](C)C[C@H](OC)[C@H]2O[C@@](O)(C(=O)C(=O)N3CCCC[C@H]3C(=O)O[C@H](/C(C)=C/[C@@H]3CC[C@@H](O)[C@H](OC)C3)[C@H](C)[C@@H](O)CC1=O)[C@H](C)C[C@@H]2OC [FK 506]	–	–	–	–	–	–	–	–	–	percent rescue from sAβ42s toxicity at 12.5 µM [4]: 52%; percent rescue from sAβ42s toxicity at 12.5 µM [5]: 34%; percent rescue from sAβ42s toxicity at 12.5 µM [6]: 34%
Oc1cc(O)c2c(c1)O[C@H](c1ccc(O)c(O)c1)[C@H](O)C2 [Epicatechin]	–	–	–	–	–	–	–	–	–	percent rescue from sAβ42s toxicity at 50 µM [7]: 30%; percent rescue from sAβ42s toxicity at 50 µM [8]: 28%; percent rescue from sAβ42s toxicity at 50 µM [9]: 20%
OC(CNc1ccccc1)Cn1c2ccc(Br)cc2c2cc(Br)ccc21 (stereo not drawn) [P7C3]	–	–	–	30%	2%	3%	43%	−8%	2%	–
Cc1c[nH]c(-c2cnc(NCCNc3ccc(C#N)cn3)nc2-c2ccc(Cl)cc2Cl)n1 [CHIR 99021 trihydrochloride]	–	–	–	–	–	–	–	–	–	percent rescue from sAβ42s toxicity at 50 µM [7]: 66%; percent rescue from sAβ42s toxicity at 50 µM [8]: 58%; percent rescue from sAβ42s toxicity at 50 µM [9]: 46%
C/C=C1\C(=O)C[C@H]2[C@@H]3CCC4=CC(=O)CC[C@]4(C)[C@H]3CC[C@]12C [Guggulsterone]	–	–	–	–	–	–	–	–	–	percent rescue from sAβ42s toxicity at 50 µM [7]: 36%; percent rescue from sAβ42s toxicity at 50 µM [8]: 19%; percent rescue from sAβ42s toxicity at 50 µM [9]: 17%
CCCCCCCCCCCCCCCCCC(=O)NCCc1ccc(O)c(O)c1 [STEARDA]	33%	24%	21%	33%	28%	24%	–	–	–	% B3T rescue (0.78 μM compound): 27%; % MAP2 rescue (0.78 μM compound): 30%; % Synapse rescue (0.78 μM compound): 24%
C=C(c1ccc(C(=O)O)c(F)c1)c1cc2c(cc1C)C(C)(C)CCC2(C)C [Fluorobexarotene]	33%	40%	33%	50%	43%	34%	–	–	–	–
Lycorine hydrochloride	83%	93%	77%	77%	99%	80%	79%	88%	75%	% B3T rescue (0.78 μM compound): 37%; % MAP2 rescue (0.78 μM compound): 57%; % Synapse rescue (0.78 μM compound): 43%
CC(C)[C@H](CO)Nc1nc(Nc2cccc(Cl)c2)c2ncn(C(C)C)c2n1 [Purvalanol A]	–	–	–	33%	15%	24%	–	–	–	–
COc1ccc(S(=O)(=O)NCCCC(=O)Nc2ccc(Sc3ccc(N)cc3)cc2)cc1 [BI-6C9]	–	–	–	–	–	–	65%	58%	55%	–
O=C(NOC[C@H](O)CO)c1ccc(F)c(F)c1Nc1ccc(I)cc1F [PD0325901]	–	–	–	–	–	–	–	–	–	percent rescue from sAβ42s toxicity at 0.78 µM [10]: 48%; percent rescue from sAβ42s toxicity at 0.78 µM [11]: 19%; percent rescue from sAβ42s toxicity at 0.78 µM [12]: 15%; percent rescue from sAβ42s toxicity at 3.13 µM [1]: 52%; percent rescue from sAβ42s toxicity at 3.13 µM [2]: 23%; percent rescue from sAβ42s toxicity at 3.13 µM [3]: 21%; percent rescue from sAβ42s toxicity at 12.5 µM [4]: 43%; percent rescue from sAβ42s toxicity at 12.5 µM [5]: 8%; percent rescue from sAβ42s toxicity at 12.5 µM [6]: 8%; percent rescue from sAβ42s toxicity at 50 µM [7]: 59%; percent rescue from sAβ42s toxicity at 50 µM [8]: 27%; percent rescue from sAβ42s toxicity at 50 µM [9]: 27%
CCOC(=O)c1ccc(N(C)c2csc(-c3ccccc3)n2)cc1 [Neuropathiazol]	35%	44%	42%	–	–	–	35%	27%	28%	–
Oc1cc2c(cc1O)CN(C(=S)NCCc1ccc(Cl)cc1)CCC2 [Capsazepine]	–	–	–	–	–	–	–	–	–	percent rescue from sAβ42s toxicity at 12.5 µM [4]: 50%; percent rescue from sAβ42s toxicity at 12.5 µM [5]: 44%; percent rescue from sAβ42s toxicity at 12.5 µM [6]: 44%
Cc1c(C)c(NCC(=O)N(C)C2CCN(Cc3ccc(C(N)=O)cc3)CC2)c(C)c(C)c1N [sun11602]	43%	19%	15%	33%	10%	11%	47%	14%	11%	–
Cc1[nH]c(/C=C2\C(=O)Nc3ccccc32)c(C)c1CCC(=O)O [SU 6668]	–	–	–	34%	31%	26%	77%	80%	75%	–

Reference: patent US20230014181A1, “CULTURE SYSTEM AND METHODS FOR IMPROVED MODELING OF NEUROLOGICAL CONDITIONS” (Genentech, Inc., priority 2021, published 2023)
